Measurements reported in US11504385B2, “Proteolysis targeting chimeric molecule, preparation method, and application” (CHINA PHARMACEUTICAL UNIVERSITY, priority 2019, dated 2022).

Columns and labels:
BCR-ABL fusion protein = target: T1, BCR-ABL fusion protein (Homo sapiens, UniProt P00519+P11274+Q96SW2, E27K); test: Immunoblotting, degradation of BCR-ABL protein in K562 cells; format: cell-based; settings: for inhibition of expression of BCR-ABL and/or CRBN protein: BCR-ABL and/or CRBN positive leukemia K562 cells, to varying degrees
T1 construct: By using BCR-ABL and CRBN positive K562 cell lines; endogenous in cells; host or cells: K562
Description: (§1) Initially, researchers synthesized a 2C compound (FIG. 2A), which is a small molecule with the shortest joining chain (n=1). By using BCR-ABL and CRBN positive K562 cell lines, degradation of ABL and BCR-ABL proteins in the cells under the action of the compound was tested by immunoblotting. […] Then, the researchers tried to extend the joining chain (increasing the value of n).
(§2) In order to test the degradation effect of the compound 4C on c-ABL and BCR-ABL proteins in K562 cells, the researchers performed an immunoblotting experiment. […] In order to exclude the possibility that the compound 4C affected the ABL gene to generate false positive expression, the researchers used RT-qPCR in K562 cells to study the expression of the ABL gene.
The operation method of the immunoblotting experiment is as follows: […]
(§3) The medium was aspirated from the culture; the cells were washed with 1*PBS; and the cells were aspirated.
(§4) A weak RIPA lysate (100 μL) was added to lyse the cells for 40 min.
(§5) The sample was centrifuged at 13000 rpm, 4° C. for 15 min; 80 μl of supernatant was taken and added to 20 μl of loading buffer; the reaction solution was heated at 100° C. for 8 minutes; and the sample was placed on ice and cooled.
(§6) […] of sample was loaded on 10% SDS-PAGE gel. The sample was transferred to a PVDF membrane by a wet process.
(§7) A membrane was placed in 25 ml of blocking buffer and blocked at room temperature for 1 hour.
(§8) The membrane and the primary antibody (according to the appropriate dilution and diluent recommended in the product description) were placed in 10 ml of primary antibody dilution buffer, and incubated overnight at 4° C. and gently shaken from time to time.
(§9) Anti-rabbit IgG, HRP-linked Antibody (#7074, in a ratio of 1:2000) and anti-biotin, HRP-linked Antibody (#7075, in a ratio of 1:1000-1:3000) are diluted with 10 ml of blocking buffer to detect biotinylated protein standards. The membrane was incubated with the diluent, and gently shaken and incubated at room temperature for 1 hour.
(§10) A developer solution and the membrane were incubated together for 1 minute, the excess solution was discarded (the membrane remained moist) and the membrane was exposed.
(§11) Next, we tested the difference in the activity of different configurations of compound 4C in degradation of ABL and BCR-ABL proteins. […] The operation method of the immunoblotting experiment is the same as above.

ABL = target: T2, ABL (Homo sapiens, UniProt P00519); test: Immunoblotting, degradation of ABL protein in K562 cells; format: cell-based; settings: 100 nM, 36 hours after administration
T2 construct: degradation effect of the compound 4C on c-ABL and BCR-ABL proteins in K562 cells; endogenous in cells; host or cells: K562
T2 sequence (P00519 whole entry): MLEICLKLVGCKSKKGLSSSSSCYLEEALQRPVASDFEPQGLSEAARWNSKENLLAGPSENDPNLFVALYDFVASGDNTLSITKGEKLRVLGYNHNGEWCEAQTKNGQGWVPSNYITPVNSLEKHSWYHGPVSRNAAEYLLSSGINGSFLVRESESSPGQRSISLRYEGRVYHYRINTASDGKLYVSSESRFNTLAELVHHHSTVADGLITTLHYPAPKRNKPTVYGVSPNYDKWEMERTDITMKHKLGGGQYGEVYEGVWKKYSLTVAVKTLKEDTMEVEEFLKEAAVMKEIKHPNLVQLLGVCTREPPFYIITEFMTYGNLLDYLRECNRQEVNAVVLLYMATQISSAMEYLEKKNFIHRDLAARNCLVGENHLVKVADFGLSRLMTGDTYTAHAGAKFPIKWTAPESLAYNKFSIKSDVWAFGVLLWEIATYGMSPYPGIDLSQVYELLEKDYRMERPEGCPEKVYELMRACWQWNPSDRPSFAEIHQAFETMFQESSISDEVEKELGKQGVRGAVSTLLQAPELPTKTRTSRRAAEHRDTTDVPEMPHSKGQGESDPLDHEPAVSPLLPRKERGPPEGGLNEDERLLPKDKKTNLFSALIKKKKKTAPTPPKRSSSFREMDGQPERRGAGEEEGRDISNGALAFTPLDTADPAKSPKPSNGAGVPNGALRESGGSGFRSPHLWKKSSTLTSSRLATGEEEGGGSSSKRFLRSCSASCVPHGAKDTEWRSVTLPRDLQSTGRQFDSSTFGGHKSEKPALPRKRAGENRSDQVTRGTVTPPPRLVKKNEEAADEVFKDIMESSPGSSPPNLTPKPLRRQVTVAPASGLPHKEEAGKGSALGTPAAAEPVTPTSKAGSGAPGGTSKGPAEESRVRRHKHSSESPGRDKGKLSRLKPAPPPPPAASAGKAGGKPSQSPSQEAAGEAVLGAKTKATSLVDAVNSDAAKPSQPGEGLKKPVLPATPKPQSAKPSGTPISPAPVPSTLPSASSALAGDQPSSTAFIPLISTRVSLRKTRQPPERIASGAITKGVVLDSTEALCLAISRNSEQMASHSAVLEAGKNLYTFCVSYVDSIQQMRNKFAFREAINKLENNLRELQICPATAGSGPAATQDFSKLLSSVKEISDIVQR
Description: as §1, §2
The operation method of the immunoblotting experiment is as follows:
K562 cells after administration were incubated for 24 hours.
as §3, §4, §5, §6, §7, §8, §9, §10, §11

inhibition of expression of BCR-ABL and/or CRBN protein (BCR-ABL fusion protein)	level of BCR-ABL fusion protein (WB) (BCR-ABL fusion protein; K562 cells, 100 nM, 36 hours after administration)	level of the ABL protein (WB) (ABL)	SMILES	level of the BCR-ABL protein (WB) (BCR-ABL fusion protein; K562 cells, 36 hours after administration, dose-effect)
can inhibit the expression	–	–	Cc1nc(Nc2ncc(C(=O)Nc3c(C)cccc3Cl)s2)cc(N2CCN(CCCCCCOc3ccc(/N=N/c4ccc(C(=O)Nc5cccc6c5CN(C5CCC(=O)NC5=O)C6=O)cc4)cc3)CC2)n1 (stereo not shown) [Compound 6C, (E)-N-(2-chloro-6-methylphenyl)-2-((6-(4-(6-(4-((4-((2-(2,6-dioxopiperidin-3-yl)-1-oxoisoindolin-4-yl)carbamoyl)phenyl)diazenyl)phenoxy)hexyl)piperazin-1-yl)-2-methylpyrimidin-4-yl)amino)thiazole-5-carboxamide]	–
can inhibit the expression	–	–	Cc1nc(Nc2ncc(C(=O)Nc3c(C)cccc3Cl)s2)cc(N2CCN(CCCCCOc3ccc(/N=N/c4ccc(C(=O)Nc5cccc6c5CN(C5CCC(=O)NC5=O)C6=O)cc4)cc3)CC2)n1 (stereo not shown) [Compound 5C, (E)-N-(2-chloro-6-methylphenyl)-2-((6-(4-(5-(4-((4-((2-(2,6-dioxopiperidin-3-yl)-1-oxoisoindolin-4-yl)carbamoyl)phenyl)diazenyl)phenoxy)pentyl)piperazin-1-yl)-2-methylpyrimidin-4-yl)amino)thiazole-5-carboxamide]	–
can inhibit the expression	significantly reduced	significantly reduced	Cc1nc(Nc2ncc(C(=O)Nc3c(C)cccc3Cl)s2)cc(N2CCN(CCOc3ccc(/N=N/c4ccc(C(=O)Nc5cccc6c5CN(C5CCC(=O)NC5=O)C6=O)cc4)cc3)CC2)n1 (stereo not shown) [Compound 2C, (E)-N-(2-chloro-6-methylphenyl)-2-((6-(4-(2-(4-((4-((2-(2,6-dioxopiperidin-3-yl)-1-oxoisoindolin-4-yl)carbamoyl)phenyl)diazenyl)phenoxy)ethyl)piperazin-1-yl)-2-methylpyrimidin-4-yl)amino)thiazole-5-carboxamide]	down-regulate the level of the BCR-ABL protein in a dose-dependent manner
can inhibit the expression	–	–	Cc1nc(Nc2ncc(C(=O)Nc3c(C)cccc3Cl)s2)cc(N2CCN(CCCOc3ccc(/N=N/c4ccc(C(=O)Nc5cccc6c5CN(C5CCC(=O)NC5=O)C6=O)cc4)cc3)CC2)n1 (stereo not shown) [Compound 3C, (E)-N-(2-chloro-6-methylphenyl)-2-((6-(4-(3-(4-((4-((2-(2,6-dioxopiperidin-3-yl)-1-oxoisoindolin-4-yl)carbamoyl)phenyl)diazenyl)phenoxy)propyl)piperazin-1-yl)-2-methylpyrimidin-4-yl)amino)thiazole-5-carboxamide]	–
